Measurements published in patent US20200039973A1, “NOVEL 5-SUBSTITUTED IMIDAZOLYLMETHYL DERIVATIVES” (BAYER CROPSCIENCE AKTIENGESELLSCHAFT, priority 2016, published 2020).

Experiment: Measurement of LogP values by HPLC on reversed phase columns (EEC directive 79/831 Annex V.A8)
Type: physicochemical
Conditions: Table 1; method [a]: LC-UV, acidic range, 0.1% formic acid in water and acetonitrile as eluent
Experimental: Measurement of LogP values was performed according to EEC directive 79/831 Annex V.A8 by HPLC (High Performance Liquid Chromatography) on reversed phase columns with the following methods: • ^[a] Log P value is determined by measurement of LC-UV, in an acidic range, with 0.1% formic acid in water and acetonitrile as eluent (linear gradient from 10% acetonitrile to 95% acetonitrile). • ^[b] Log P value is determined by measurement of LC-UV, in a neutral range, with 0.001 molar ammonium acetate solution in water and acetonitrile as eluent (linear gradient from 10% acetonitrile to 95% acetonitrile). • ^[c] Log P value is determined by measurement of LC-UV, in an acidic range, with 0.1% phosphoric acid and acetonitrile as eluent (linear gradient from 10% acetonitrile to 95% acetonitrile).
If more than one Log P value is available within the same method, all the values are given and separated by “+”.
Calibration was done with straight-chain alkan2-ones (with 3 to 16 carbon atoms) with known Log P values (measurement of Log P values using retention times with linear interpolation between successive alkanones). Lambda-max-values were determined using UV-spectra from 200 nm to 400 nm and the peak values of the chromatographic signals.

LogP | SMILES | chromatographic logP
3.00^[a] | N#Cc1cncn1CC(O)(Cc1ccccc1Cl)c1ccc(F)cc1F (centres unmarked) [I-01] | –
2.82^[a] | N#Cc1cncn1CC(O)(Cc1ccc(F)cc1F)c1ccc(F)cc1F (centres unmarked) [I-02] | –
2.96^[a] | N#Cc1cncn1CC(O)(Cc1ccc(F)c(F)c1F)c1ccc(F)cc1F (centres unmarked) [I-03] | –
2.40^[a] | N#Cc1cncn1CC(O)(Cc1cccc(F)c1F)c1ccccc1 (centres unmarked) [I-04] | –
2.47^[a] | N#Cc1cncn1CC(O)(Cc1ccc(F)cc1)c1ccccc1 (centres unmarked) [I-05] | –
3.17^[a] | N#Cc1cncn1CC(O)(Cc1ccc(Cl)cc1F)c1ccc(F)cc1F (centres unmarked) [I-07] | –
2.51^[a] | N#Cc1cncn1CC(O)(Cc1ccccc1F)c1ccccc1 (centres unmarked) [I-08] | –
2.60^[a] | N#Cc1cncn1CC(O)(Cc1ccc(F)cc1F)c1ccccc1 (centres unmarked) [I-09] | –
2.90^[a] | N#Cc1cncn1CC(O)(Cc1ccc(F)cc1F)c1ccc(Cl)s1 (centres unmarked) [I-10] | –
2.98^[a] | Cc1cccc(CC(O)(Cn2cncc2C#N)c2ccc(F)cc2F)c1F (centres unmarked) [I-11] | –
2.75^[a] | N#Cc1cncn1CC(O)(Cc1cccc(F)c1F)c1ccc(F)cc1F (centres unmarked) [I-12] | –
3.18^[a] | N#Cc1cncn1CC(O)(Cc1ccccc1F)C1(c2ccccc2)CC1 (centres unmarked) [I-14] | –
3.44^[a] | N#Cc1cncn1CC(O)(Cc1ccccc1Cl)C1(c2ccccc2)CC1 (centres unmarked) [I-15] | –
2.70^[a] | N#Cc1cncn1CC(O)(Cc1ccccc1Cl)c1ccccc1 (centres unmarked) [I-17] | –
2.98^[a] | N#Cc1cncn1CC(O)(Cc1ccc(Cl)cc1F)c1ccccc1 (centres unmarked) [I-18] | –
2.78^[a] | N#Cc1cncn1CC(O)(Cc1ccccc1F)c1ccc(Cl)s1 (centres unmarked) [I-19] | –

LogP | SMILES | chromatographic logP
2.68^[a] | N#Cc1cncn1CC(O)(Cc1ccccc1F)c1ccc(F)cc1F (centres unmarked) [I-20] | –
2.57^[a] | N#Cc1cncn1CC(O)(Cc1ccc(F)c(F)c1F)c1ccccc1 (centres unmarked) [I-21] | –
3.06^[a] | N#Cc1cncn1CC(O)(Cc1cccc(Cl)c1F)c1ccc(F)cc1F (centres unmarked) [I-22] | –
3.25^[a] | N#Cc1cncn1CC(O)(Cc1cccc(F)c1F)C1(c2ccccc2)CC1 (centres unmarked) [I-23] | –
2.73^[a] | N#Cc1cncn1CC(O)(Cc1ccc(F)cc1)c1ccc(F)cc1F (centres unmarked) [I-24] | –
2.63^[a] | N#Cc1cncn1CC(O)(Cc1ccccc1F)c1cc(F)ccc1F (centres unmarked) [I-25] | –
3.07^[a] | N#Cc1cncn1CC(O)(Cc1ccc(Cl)cc1F)c1cc(F)ccc1F (centres unmarked) [I-26] | –
2.77^[a] | N#Cc1cncn1CC(O)(Cc1ccc(F)cc1F)c1cc(F)ccc1F (centres unmarked) [I-27] | –
2.92^[a] | N#Cc1cncn1CC(O)(Cc1ccccc1Cl)c1cc(F)ccc1F (centres unmarked) [I-28] | –
2.73^[a] | N#Cc1cncn1CC(O)(Cc1cccc(F)c1F)c1cc(F)ccc1F (centres unmarked) [I-29] | –
2.15^[a] | N#Cc1cncn1CC(O)(Cc1ccccc1F)c1ccco1 (centres unmarked) [I-30] | –
2.25^[a] | N#Cc1cncn1CC(O)(Cc1cccc(F)c1F)c1ccco1 (centres unmarked) [I-31] | –
2.45^[a] | N#Cc1cncn1CC(O)(Cc1ccccc1Cl)c1ccco1 (centres unmarked) [I-32] | –
2.57^[a] | N#Cc1cncn1CC(O)(Cc1cccc(Cl)c1F)c1ccco1 (centres unmarked) [I-33] | –
– | N#Cc1cncn1CC(O)(Cc1ccc(F)cc1F)c1ccco1 (centres unmarked) [I-34, 3-[3-(2,4-difluorophenyl)-2-(2-furyl)-2-hydroxy-propyl]imidazole-4-carbonitrile] | 2.32

Same assay, conditions: Table 2 (formula XVIIa); method [a]: LC-UV, acidic range, 0.1% formic acid in water and acetonitrile as eluent

LogP | SMILES
1.87^[a] | N#Cc1cncn1CC(=O)Cc1cccc(F)c1F [XVIIa-02]
1.75^[a] | N#Cc1cncn1CC(=O)Cc1ccccc1F [XVIIa-03]
1.65^[a] | N#Cc1cncn1CC(=O)Cc1ccccc1 [XVIIa-04]
1.82^[a] | N#Cc1cncn1CC(=O)Cc1ccccc1Cl [XVIIa-05]
2.02^[a] | N#Cc1cncn1CC(=O)Cc1ccccc1Br [XVIIa-06]
2.14^[a] | N#Cc1cncn1CC(=O)Cc1ccc(Cl)cc1 [XVIIa-07]

Same assay, conditions: reversed-phase HPLC column; Table 1; method [a]: LC-UV, acidic range, 0.1% formic acid in water and acetonitrile as eluent

chromatographic logP | SMILES
3.29 | N#Cc1cncn1CC(O)(Cc1ccc(F)cc1F)C1(c2ccccc2)CC1 (centres unmarked) [I-06, 3-[3-(2,4-difluorophenyl)-2-hydroxy-2-(1-phenylcyclopropyl)propyl]imidazole-4-carbonitrile]
2.68 | N#Cc1cncn1CC(O)(Cc1ccccc1)c1ccc(F)cc1F (centres unmarked) [I-13, 3-[2-(2,4-difluorophenyl)-2-hydroxy-3-phenyl-propyl]imidazole-4-carbonitrile]
2.86 | N#Cc1cncn1CC(O)(Cc1cccc(F)c1F)c1ccc(Cl)s1 (centres unmarked) [I-16, 3-[2-(5-chloro-2-thienyl)-3-(2,3-difluorophenyl)-2-hydroxy-propyl]imidazole-4-carbonitrile]

Same assay, conditions: reversed-phase HPLC column; Table 2 (formula XVIIa); method [a]: LC-UV, acidic range, 0.1% formic acid in water and acetonitrile as eluent

chromatographic logP | SMILES
2.17 | N#Cc1cncn1CC(=O)C1(c2ccccc2)CC1 [XVIIa-01, 3-[2-oxo-2-(1-phenylcyclopropyl)ethyl]imidazole-4-carbonitrile]
